Source: PMC2635097 (Molecular pharmacology, 2008)
Several values for one entry are separate records, joined by “and”; a condition that tells them apart may be missing. Identical values can stand only once. Like-named read-outs stand apart in the source and are kept apart here. Values belong to the compound of their own block, whether it stands above or below them.

How the values were obtained:
hNav1.4 = hNav1.4 (Homo sapiens, UniProt P35499); test: Selectivity patch-clamp, Nav1.4 currents; type: cell-based
Nav1.2 = Nav1.2 (Mus musculus, UniProt B1AWN6); test: Selectivity patch-clamp, Nav1.2 currents from N1E-115 cells; type: cell-based
Rat Kv3.2 = Rat Kv3.2 (Rattus norvegicus, UniProt P22462); test: Selectivity patch-clamp, Kv3.2 currents; type: cell-based
hKCa1.1 = hKCa1.1 (Homo sapiens, UniProt Q12791); test: Selectivity patch-clamp, KCa1.1 currents; type: cell-based; conditions: 1 μM free Ca2+
mKv3.1 = mKv3.1 (Mus musculus, UniProt P15388); test: Selectivity patch-clamp, Kv3.1 currents; type: cell-based
logP = type: physicochemical
hKCa3.1 = hKCa3.1 (Homo sapiens, UniProt O15554); test: Whole-cell patch-clamp of KCa3.1 currents; type: cell-based
hKCa2.1 = hKCa2.1 (Homo sapiens, UniProt Q92952); test: Whole-cell patch-clamp of KCa2.1 currents; type: cell-based
K2P2.1 (TREK-1) = biological target: T1, K2P2.1 (TREK-1) (Mus musculus, UniProt P97438); test: Selectivity patch-clamp, endothelial cell TREK-1 currents; type: cell-based
T1 sequence (P97438 1-426): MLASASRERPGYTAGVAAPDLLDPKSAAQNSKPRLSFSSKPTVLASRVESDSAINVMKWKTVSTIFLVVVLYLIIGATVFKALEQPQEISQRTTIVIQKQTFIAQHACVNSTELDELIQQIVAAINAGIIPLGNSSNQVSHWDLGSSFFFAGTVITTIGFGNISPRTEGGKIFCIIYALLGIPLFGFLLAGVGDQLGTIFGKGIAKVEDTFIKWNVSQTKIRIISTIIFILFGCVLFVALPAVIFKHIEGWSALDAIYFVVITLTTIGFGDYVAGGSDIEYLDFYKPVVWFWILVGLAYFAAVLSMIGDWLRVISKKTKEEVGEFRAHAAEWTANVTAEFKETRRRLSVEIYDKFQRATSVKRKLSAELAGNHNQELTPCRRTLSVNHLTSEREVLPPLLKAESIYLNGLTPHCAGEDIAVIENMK

rKCa2.2 = rKCa2.2 (Rattus norvegicus, UniProt P70604); test: Whole-cell patch-clamp of KCa2.2 currents; type: cell-based
Rat Nav1.5 = Rat Nav1.5 (Rattus norvegicus, UniProt P15389); test: Selectivity patch-clamp, Nav1.5 currents; type: cell-based
hKCa2.3 = hKCa2.3 (Homo sapiens, UniProt Q9UGI6); test: Whole-cell patch-clamp of KCa2.3 currents; type: cell-based; conditions: read-out: EC50 KCa2.3 activation; 250 nM [Ca2+]i
rKv4.2 = biological target: T2, rKv4.2 (Rattus norvegicus, UniProt Q63881); test: Selectivity patch-clamp, Kv4.2 currents; type: cell-based
T2 sequence (Q63881 1-630): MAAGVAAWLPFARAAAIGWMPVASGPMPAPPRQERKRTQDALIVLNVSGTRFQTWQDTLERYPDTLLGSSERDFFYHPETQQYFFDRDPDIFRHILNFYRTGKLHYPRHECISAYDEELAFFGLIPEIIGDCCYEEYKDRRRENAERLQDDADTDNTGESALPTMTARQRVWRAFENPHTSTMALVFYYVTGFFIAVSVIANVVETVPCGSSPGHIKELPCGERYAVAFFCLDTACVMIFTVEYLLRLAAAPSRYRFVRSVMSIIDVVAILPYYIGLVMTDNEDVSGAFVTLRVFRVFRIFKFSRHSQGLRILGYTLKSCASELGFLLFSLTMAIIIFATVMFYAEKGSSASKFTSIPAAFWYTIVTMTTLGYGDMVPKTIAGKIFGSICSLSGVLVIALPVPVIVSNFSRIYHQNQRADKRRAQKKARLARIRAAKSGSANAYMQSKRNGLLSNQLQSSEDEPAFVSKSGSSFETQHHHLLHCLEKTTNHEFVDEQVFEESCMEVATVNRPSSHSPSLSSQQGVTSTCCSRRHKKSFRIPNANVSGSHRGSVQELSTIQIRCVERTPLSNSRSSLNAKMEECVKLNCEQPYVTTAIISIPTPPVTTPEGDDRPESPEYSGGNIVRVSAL

mKv1.1 = mKv1.1 (Mus musculus, UniProt P16388); test: Selectivity patch-clamp, Kv1.1 currents; type: cell-based
hKv1.5 = hKv1.5 (Homo sapiens, UniProt P22460); test: Selectivity patch-clamp, Kv1.5 currents; type: cell-based
cloned KCa3.1 channels = conditions: cited from earlier work
KCa2.2 = conditions: cited from earlier work
KCa2.3 = conditions: read-out: EC50 KCa2.3 currents; ref Hougaard et al., 2007; cited from earlier work
KCa2.1 = conditions: ref Hougaard et al., 2007; cited from earlier work
mKv1.3 = mKv1.3 (Mus musculus, UniProt P16390); test: Selectivity patch-clamp, Kv1.3 currents; type: cell-based
Jurkat E61 and MEL cells = test: Cytotoxicity assay; type: cell-based; conditions: concentrations up to 100 μM; 48 h
mice [1] = test: Maximal electroshock; type: in vivo, mouse; conditions: 100 mg/kg i.p., 15 min, 30 min and 1 hour
Kv11.1 (HERG) = Kv11.1 (HERG) (Homo sapiens, UniProt Q12809)
wt and KCa3.1−/− mice = test: Telemetric blood pressure in normotensive mice; type: in vivo, mouse; conditions: for MAP over 24 h: mean ± SEM; for lowering of mean arterial pressure (MAP): over 24 h
Pharmacokinetics in rats = type: in vivo; conditions: rat; for peak total plasma concentration: 2 h
[2] = Plasma protein binding by ultrafiltration; type: in vitro ADME, rat
Cav1.2 = Cav1.2 (Oryctolagus cuniculus, UniProt P15381); test: Selectivity patch-clamp, Cav1.2 currents; type: cell-based
mice [3] = type: in vivo, mouse; conditions: 100 mg/kg i.p., 15 min, 30 min and 1 hour
[4] = system: wt mice infused with Ang-II; test: Telemetric blood pressure in angiotensin-II-induced hypertension; type: in vivo, mouse; conditions: 30 mg/kg i.p.
[5] = biological target: glutamate site of NMDA receptors (Rattus norvegicus, UniProt Q00959); test: NMDA receptor radioligand binding assay
murine carotid artery = test: Pressure myography, EDHF-type dilation of carotid artery; parameters: species or system mouse
[6] = male, Sprague-Dawley, plasma, iv, 10 mg/kg

hKCa1.1, sequence (Q12791 whole entry): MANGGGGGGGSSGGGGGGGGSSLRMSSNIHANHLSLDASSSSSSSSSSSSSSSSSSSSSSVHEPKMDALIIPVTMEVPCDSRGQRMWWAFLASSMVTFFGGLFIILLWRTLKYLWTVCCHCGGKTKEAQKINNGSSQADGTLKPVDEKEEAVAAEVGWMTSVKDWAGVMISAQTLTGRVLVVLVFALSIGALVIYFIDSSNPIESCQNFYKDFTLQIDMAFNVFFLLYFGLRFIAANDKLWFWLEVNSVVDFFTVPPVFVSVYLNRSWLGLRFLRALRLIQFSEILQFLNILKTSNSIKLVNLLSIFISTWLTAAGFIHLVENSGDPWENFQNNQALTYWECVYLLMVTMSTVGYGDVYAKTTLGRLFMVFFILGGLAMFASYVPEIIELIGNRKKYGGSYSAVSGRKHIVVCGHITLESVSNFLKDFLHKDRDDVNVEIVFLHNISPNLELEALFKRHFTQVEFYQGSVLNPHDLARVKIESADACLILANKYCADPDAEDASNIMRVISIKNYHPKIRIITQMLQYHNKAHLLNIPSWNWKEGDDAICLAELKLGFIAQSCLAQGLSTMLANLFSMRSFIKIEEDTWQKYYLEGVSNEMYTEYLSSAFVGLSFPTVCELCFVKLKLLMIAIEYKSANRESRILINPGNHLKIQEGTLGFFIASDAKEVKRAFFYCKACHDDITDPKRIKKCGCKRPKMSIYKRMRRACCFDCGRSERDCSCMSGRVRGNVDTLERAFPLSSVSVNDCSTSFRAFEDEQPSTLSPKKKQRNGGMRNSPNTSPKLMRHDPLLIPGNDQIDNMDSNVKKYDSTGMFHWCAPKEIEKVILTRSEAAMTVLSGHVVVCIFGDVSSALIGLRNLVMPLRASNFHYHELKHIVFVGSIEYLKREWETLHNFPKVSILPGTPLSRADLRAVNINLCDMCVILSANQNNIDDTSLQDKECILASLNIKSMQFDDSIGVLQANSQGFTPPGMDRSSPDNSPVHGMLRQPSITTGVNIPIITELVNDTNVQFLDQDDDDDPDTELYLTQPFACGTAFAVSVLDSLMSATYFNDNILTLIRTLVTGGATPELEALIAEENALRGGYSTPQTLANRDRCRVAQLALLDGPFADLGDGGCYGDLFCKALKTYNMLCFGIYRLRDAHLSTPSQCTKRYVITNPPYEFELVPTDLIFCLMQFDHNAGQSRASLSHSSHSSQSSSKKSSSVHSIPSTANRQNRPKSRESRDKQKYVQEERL
hKCa3.1, sequence (O15554 whole entry): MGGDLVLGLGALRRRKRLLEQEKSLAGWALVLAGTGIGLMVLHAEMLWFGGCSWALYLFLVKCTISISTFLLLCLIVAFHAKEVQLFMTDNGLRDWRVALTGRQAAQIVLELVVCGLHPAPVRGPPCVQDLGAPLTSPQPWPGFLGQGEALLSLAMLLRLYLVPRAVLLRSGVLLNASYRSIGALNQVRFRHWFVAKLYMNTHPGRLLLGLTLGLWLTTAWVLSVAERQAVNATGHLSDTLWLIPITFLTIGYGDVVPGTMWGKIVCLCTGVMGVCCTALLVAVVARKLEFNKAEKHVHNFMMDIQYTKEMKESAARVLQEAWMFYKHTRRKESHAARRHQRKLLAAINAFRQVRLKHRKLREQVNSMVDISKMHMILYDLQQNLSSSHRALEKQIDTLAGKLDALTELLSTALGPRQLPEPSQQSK
mKv1.1, sequence (P16388 whole entry): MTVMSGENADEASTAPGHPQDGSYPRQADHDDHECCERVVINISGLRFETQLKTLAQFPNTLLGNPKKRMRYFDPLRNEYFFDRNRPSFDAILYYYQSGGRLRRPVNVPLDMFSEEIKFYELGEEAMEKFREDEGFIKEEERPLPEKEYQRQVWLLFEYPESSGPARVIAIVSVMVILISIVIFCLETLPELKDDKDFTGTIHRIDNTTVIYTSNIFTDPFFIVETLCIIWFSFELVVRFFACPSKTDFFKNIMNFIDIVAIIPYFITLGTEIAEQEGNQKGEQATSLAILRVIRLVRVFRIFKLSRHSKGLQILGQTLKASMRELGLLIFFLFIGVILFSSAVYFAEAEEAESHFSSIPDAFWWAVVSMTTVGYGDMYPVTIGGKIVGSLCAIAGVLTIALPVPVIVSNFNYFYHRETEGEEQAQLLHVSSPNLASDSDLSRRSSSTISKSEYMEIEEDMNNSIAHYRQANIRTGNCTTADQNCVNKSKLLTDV
hNav1.4, sequence (P35499 whole entry): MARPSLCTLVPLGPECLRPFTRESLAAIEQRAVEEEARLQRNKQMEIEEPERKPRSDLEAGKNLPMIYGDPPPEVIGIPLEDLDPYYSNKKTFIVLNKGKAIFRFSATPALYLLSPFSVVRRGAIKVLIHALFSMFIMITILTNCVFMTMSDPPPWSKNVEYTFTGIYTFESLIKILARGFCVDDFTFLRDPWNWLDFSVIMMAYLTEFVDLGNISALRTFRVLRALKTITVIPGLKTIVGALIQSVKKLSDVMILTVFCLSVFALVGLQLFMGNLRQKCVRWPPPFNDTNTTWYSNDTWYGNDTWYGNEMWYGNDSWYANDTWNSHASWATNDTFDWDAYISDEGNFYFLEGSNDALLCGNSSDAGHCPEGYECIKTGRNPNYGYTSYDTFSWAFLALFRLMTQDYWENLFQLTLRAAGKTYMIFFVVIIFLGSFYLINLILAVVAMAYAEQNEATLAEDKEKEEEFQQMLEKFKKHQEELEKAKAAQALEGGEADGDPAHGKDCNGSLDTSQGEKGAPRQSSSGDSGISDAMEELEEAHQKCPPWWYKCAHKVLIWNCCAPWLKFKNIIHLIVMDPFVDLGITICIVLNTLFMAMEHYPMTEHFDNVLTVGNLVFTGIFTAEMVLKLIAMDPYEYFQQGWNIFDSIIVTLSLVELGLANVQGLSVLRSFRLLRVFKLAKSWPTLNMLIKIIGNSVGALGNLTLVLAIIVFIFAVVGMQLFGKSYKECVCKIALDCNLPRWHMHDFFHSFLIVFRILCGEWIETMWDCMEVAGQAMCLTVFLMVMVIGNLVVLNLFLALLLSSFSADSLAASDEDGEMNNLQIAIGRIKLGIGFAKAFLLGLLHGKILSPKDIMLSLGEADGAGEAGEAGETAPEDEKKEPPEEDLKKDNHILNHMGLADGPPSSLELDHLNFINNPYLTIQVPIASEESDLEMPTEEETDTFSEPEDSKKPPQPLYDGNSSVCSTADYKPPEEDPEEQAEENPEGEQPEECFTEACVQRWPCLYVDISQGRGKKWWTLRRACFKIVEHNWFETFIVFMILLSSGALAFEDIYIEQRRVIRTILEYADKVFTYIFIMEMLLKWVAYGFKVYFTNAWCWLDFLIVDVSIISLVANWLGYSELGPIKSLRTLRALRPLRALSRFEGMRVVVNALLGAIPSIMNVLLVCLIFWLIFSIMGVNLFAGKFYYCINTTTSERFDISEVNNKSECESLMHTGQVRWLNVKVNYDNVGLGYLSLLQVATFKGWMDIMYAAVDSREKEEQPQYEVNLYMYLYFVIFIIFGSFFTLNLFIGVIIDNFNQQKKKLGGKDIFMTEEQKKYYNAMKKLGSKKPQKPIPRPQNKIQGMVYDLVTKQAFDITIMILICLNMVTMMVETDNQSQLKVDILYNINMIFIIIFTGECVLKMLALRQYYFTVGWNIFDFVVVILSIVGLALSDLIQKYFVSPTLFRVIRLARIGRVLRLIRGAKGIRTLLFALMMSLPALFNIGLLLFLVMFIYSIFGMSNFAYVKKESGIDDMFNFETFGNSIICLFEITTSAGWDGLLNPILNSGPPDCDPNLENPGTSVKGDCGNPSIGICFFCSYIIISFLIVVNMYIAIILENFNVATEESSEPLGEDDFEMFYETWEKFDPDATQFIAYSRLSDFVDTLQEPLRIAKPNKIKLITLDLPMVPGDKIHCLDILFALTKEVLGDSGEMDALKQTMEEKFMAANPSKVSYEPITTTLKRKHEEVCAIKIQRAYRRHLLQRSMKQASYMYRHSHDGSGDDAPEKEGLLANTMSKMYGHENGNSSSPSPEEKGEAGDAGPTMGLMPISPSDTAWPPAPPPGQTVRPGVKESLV
mKv3.1, sequence (P15388 whole entry): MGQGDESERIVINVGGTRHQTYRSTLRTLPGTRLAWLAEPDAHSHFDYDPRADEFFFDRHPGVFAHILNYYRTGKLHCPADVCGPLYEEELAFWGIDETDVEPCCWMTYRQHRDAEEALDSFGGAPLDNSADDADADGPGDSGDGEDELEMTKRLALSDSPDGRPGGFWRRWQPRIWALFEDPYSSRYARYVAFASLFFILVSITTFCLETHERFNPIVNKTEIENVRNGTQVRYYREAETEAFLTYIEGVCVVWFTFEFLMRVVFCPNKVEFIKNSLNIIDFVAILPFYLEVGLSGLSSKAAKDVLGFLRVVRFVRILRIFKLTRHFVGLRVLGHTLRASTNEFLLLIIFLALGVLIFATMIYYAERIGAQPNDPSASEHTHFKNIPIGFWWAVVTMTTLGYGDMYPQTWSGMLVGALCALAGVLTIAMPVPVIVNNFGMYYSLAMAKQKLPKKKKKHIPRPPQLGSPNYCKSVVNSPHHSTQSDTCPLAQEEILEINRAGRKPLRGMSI
rKCa2.2, sequence (P70604 whole entry): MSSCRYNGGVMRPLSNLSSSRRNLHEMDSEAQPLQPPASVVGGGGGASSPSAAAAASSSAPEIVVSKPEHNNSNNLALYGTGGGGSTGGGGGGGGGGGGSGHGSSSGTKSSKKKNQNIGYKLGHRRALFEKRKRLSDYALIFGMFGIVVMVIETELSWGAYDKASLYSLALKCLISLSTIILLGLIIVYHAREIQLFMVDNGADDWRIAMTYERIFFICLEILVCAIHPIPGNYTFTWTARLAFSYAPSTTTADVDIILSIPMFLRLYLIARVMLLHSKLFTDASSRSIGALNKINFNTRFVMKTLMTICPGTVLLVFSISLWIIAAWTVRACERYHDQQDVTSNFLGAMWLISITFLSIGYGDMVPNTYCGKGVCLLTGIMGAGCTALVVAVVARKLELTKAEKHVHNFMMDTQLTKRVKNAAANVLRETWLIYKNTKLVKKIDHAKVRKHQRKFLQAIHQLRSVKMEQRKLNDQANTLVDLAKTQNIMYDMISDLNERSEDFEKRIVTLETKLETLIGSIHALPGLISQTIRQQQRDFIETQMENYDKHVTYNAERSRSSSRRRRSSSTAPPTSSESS

Structure (SMILES): Nc1nc2ccc(OC(F)(F)F)cc2s1 [Riluzole, 2-amino-6-[trifluoromethoxy]benzothiazole, reference compound]
IC50 (Nav1.2): 15 ± 3 µM | IC50 (Rat Kv3.2): 100 ± 10 µM | effect on KCa1.1 current at 100 μM (hKCa1.1; 100 μM): Doubles current at 100 μM | IC50 (mKv3.1): 95 ± 5 µM | EC50 (hKCa3.1): 1.9 µM | increase of KCa3.1 currents (hKCa3.1; 250 nM [Ca2+]i): ~30 fold | increase of KCa3.1 currents (hKCa3.1; 1 μM [Ca2+]i): roughly 3 fold | EC50 (hKCa2.1): 21 µM | EC50 (K2P2.1 (TREK-1)): 110 ± 35 µM | EC50 (rKCa2.2): 12.8 µM | IC50 (hKv1.5): 95 ± 5 µM | IC50 (rKv4.2): 130 ± 10 µM | IC50 (mKv1.1): 92 ± 7 µM

Structure (SMILES): CCn1c(=O)[nH]c2cc(Cl)c(Cl)cc21 [DCEBIO, 5,6-dichloro-EBIO]
EC50 (cloned KCa3.1 channels; read-out: EC50 KCa3.1, ref Singh et al., 2001): 0.75 µM | EC50 (KCa2.2; read-out: EC50 KCa2.2, ref Pedarzani et al., 2001): 27 µM

Structure (SMILES): Cc1cc(NC2CCCCC2)nc(-n2nc(C)cc2C)n1 [CyPPA]
effect on KCa3.1 (cloned KCa3.1 channels; ref Hougaard et al., 2007): no effect | EC50 (KCa2.3): 6 µM | effect on KCa2.1 (KCa2.1): no effect | EC50 (KCa2.2; read-out: EC50 KCa2.2 currents, ref Hougaard et al., 2007): 14 µM

More lines, main results first:

Nav1.4 block at 10 μM (hNav1.4; 10 μM): No effect at 10 μM | IC50 (Nav1.2): 14 ± 2 µM | Kv3.2 block at 10 μM (Rat Kv3.2; 10 μM): 12 ± 5% block at 10 μM | effect on KCa1.1 current at 10 μM (hKCa1.1; 10 μM): No effect at 10 μM | Kv3.1 block at 10 μM (mKv3.1; 10 μM): 35 ± 3% block at 10 μM | logP (logP): 3.1 | EC50 (hKCa3.1): 0.115 µM | EC50 (hKCa2.1): 0.43 µM | K2P2.1 (TREK-1) effect at 10 μM (K2P2.1 (TREK-1); 10 μM): No effect at 10 μM | EC50 (rKCa2.2): 1.9 µM | EC50 (hKCa2.3): 1.2 µM | Kv4.2 block at 10 μM (rKv4.2; 10 μM): 10 ± 3% block at 10 μM | Kv1.1 block at 10 μM (mKv1.1; 10 μM): 12 ± 3%block at 10 μM
Structure (SMILES): Nc1nc2ccc3cc4ccccc4cc3c2s1 [SKA-20, Anthra[2,1-d]thiazol-2-ylamine]
Nav1.5 block at 10 μM (Rat Nav1.5): 30 ± 5% block at 10 μM

Kv1.3 block at 25 μM (mKv1.3): 20 ± 5% block at 25 μM | Nav1.4 block at 25 μM (hNav1.4; 25 μM): 20 ± 5 % block at 25 μM | effect on KCa1.1 current at 25 μM (hKCa1.1; 25 μM): No effect at 25 μM | logP (logP): 2.2 | Tmax (Pharmacokinetics in rats; male, Sprague-Dawley, plasma, ip, 30 mg/kg): 2 h | concentration at 1 h (Pharmacokinetics in rats; [6]): 5000 nM | concentration at 24 h (Pharmacokinetics in rats; [6]): 2500 nM | concentration at 48 h (Pharmacokinetics in rats; [6]): 2000 nM | concentration at 80 h (Pharmacokinetics in rats; [6]): 2000 nM | peak total plasma concentration (Pharmacokinetics in rats; i.p. 10 mg/kg): 25 µM | plasma concentrations higher than tissue concentrations (Pharmacokinetics in rats; i.p. 10 mg/kg, 2 h (plasma peak)): 4–8 fold | peak total plasma concentration (Pharmacokinetics in rats; i.p. 30 mg/kg): 37 µM | total plasma concentration, peak at 3 min (Pharmacokinetics in rats; i.v. 10 mg/kg, 3 min): 30 µM | unbound (free) fraction ([2]; rat plasma spiked with 10 μM): 61 ± 1.7% and 61% | fraction unbound at 15 min, 10 μM ([2]; rat, plasma): 0.61 | K2P2.1 (TREK-1) effect at 25 μM (K2P2.1 (TREK-1); 25 μM): No effect at 25 μM | Kv1.5 block at 25 μM (hKv1.5; 25 μM): 20 ± 5% block at 25 μM | effect in NMDA receptor binding assay at 25 μM [5]: no effect | Kv4.2 block at 25 μM (rKv4.2; 25 μM): No effect at 25 μM | Kv1.1 block at 25 μM (mKv1.1; 25 μM): No effect at 25 μM
Structure (SMILES): Nc1nc2c(ccc3ccccc32)s1 [SKA-31, naphtho[1,2-d]thiazol-2-ylamine]
cytotoxicity (Jurkat E61 and MEL cells): not cytotoxic | protection from seizures, maximal electroshock (MES) model (mice [1]): effectively protect mice from seizures | Kv11.1 (HERG) block at 25 μM (Kv11.1 (HERG)): No effect at 25 μM | MAP over 24 h (wt and KCa3.1−/− mice; KCa3.1−/− mice, 10 mg/kg i.p.): 104.3 ± 1.5 mmHg | MAP over 24 h (wt and KCa3.1−/− mice; KCa3.1−/− mice, 30 mg/kg i.p.): 102.9 ± 0.6 mmHg | effect on mean arterial pressure (MAP) (wt and KCa3.1−/− mice; KCa3.1−/− mice, 10 and 30 mg/kg i.p.): no blood pressure lowering effects | effect on heart rate (wt and KCa3.1−/− mice; any of the groups): did not alter heart rate | effect on mean arterial pressure (MAP) (wt and KCa3.1−/− mice; normotensive wt mice, 1 mg/kg i.p.): ineffective | lowering of mean arterial pressure (MAP) (wt and KCa3.1−/− mice; normotensive wt mice, 10 mg/kg i.p.): 4 mmHg | lowering of mean arterial pressure (MAP) (wt and KCa3.1−/− mice; normotensive wt mice, 30 mg/kg i.p.): 6 mmHg | MAP over 24 h (wt and KCa3.1−/− mice; wt mice, 1 mg/kg i.p.): 99.0 ± 2.0 mmHg | MAP over 24 h (wt and KCa3.1−/− mice; wt mice, 10 mg/kg i.p.): 95.8 ± 1.3 mmHg | MAP over 24 h (wt and KCa3.1−/− mice; wt mice, 30 mg/kg i.p.): 94.1 ± 1.3 mmHg | Cav1.2 block at 25 μM (Cav1.2): No effect at 25 μM | protection from seizures, 6 Hz minimal electroshock model (mice [3]): effectively protect mice from seizures | MAP ([4]; Ang-II hypertensive wt mice, mean ± SEM): 120 ± 4 mmHg | lowering of mean arterial pressure (MAP) ([4]; angiotensin-II-induced hypertension, wt mice): 12 mmHg | effect on carotid artery diameter in the absence of acetylcholine (murine carotid artery; 0.01 to 1 μM): did not dilate or contract | potentiation of residual KCa2.3-mediated EDHF-type response (murine carotid artery; carotid arteries of KCa3.1−/− mice, 0.1 to 1 μM): did not potentiate | increase in EDHF-type dilation at 1 μM (murine carotid artery; wt carotid artery, 100 nM acetylcholine, 1 μM): two- to three-fold increase in dilation
